US5441883A, “A3 adenosine receptor, DNA, and uses” (priority 1993, dated 1995)
Like-named read-outs stand apart in the source and are kept apart here.

Experiments:
A3 adenosine receptor [1] = molecular target: T1, A3 adenosine receptor (Rattus norvegicus, UniProt P28647); assay: biochemical; type: binding; conditions: for ability to compete with [125I]APNEA for A3 receptor binding: 100 μM
T1 sequence (P28647 1-320): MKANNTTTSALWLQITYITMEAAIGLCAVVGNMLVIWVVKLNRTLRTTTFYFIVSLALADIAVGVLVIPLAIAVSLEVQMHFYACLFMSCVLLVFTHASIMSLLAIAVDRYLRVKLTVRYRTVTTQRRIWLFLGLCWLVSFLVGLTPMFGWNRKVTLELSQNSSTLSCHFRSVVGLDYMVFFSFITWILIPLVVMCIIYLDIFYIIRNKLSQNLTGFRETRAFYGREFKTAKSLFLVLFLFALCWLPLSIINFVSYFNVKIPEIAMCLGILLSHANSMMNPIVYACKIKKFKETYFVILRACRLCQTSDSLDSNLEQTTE
Method: FIGS. 4A and 4B illustrates competitive binding assays using stably transfected CHO cell membrane preparations.
(§1) Cell membranes were prepared as follows. COS-7 cells (transient expressors) were harvested 48 hrs after transfection, whereas CHO cells (stable expressors) were grown to confluence in 150 mm plates. Cells were washed twice with ice-cold HOB buffer [15 mM Tris-HCl (pH 7.4), 5 mM MgCl2, 1 mM EDTA] and scraped off plates with a rubber policeman. Cells were then collected by centrifugation at 1,200 rpm (xx g), resuspended in HOB buffer, transferred to a Dounce homogenizer on ice, and homogenized for 20 sec with a CorTarge homogenizer (Eberbach Inc., Ann Arbor, Mich.) at the #3 speed setting. The homogenate was then centrifuged at 2,000 rpm (xx g) for 10 min at 4° C. The supernatant was saved and the pellet resuspended in HOB buffer and subjected to a second round of homogenation. The second homogenate was centrifuged at 2000 rpm (xx g) for 10 min and the pellet was discarded. Supernatants were pooled and centrifuged at 34,000 rpm (xx g) for 45 min. These crude membrane pellets were resuspended in TEM buffer [50 mM Tris-HCl (pH 7.4), 5 mM MgCl2, 1 mM EDTA]. Adenosine deaminase (Sigma, St Louis, Mo.) was added to the membrane suspensions to a concentration of 2 Units/ml and incubated at 37° C. for 30 min. The membrane suspension was subsequently recentrifuged at 34,000 rpm (xx g) for 45 min. The resulting pellet was resuspended in TEM buffer at a protein concentration of about 1 mg/ml and stored in small aliquots at -70° C. The protein concentration was measured according to the method of Lowry et al. (1954, J. Biol. Chem. 207: 1-XXX) using bovine serum albumin as a standard.
Radioligand binding assays were carried out in duplicate in 500 μl of a solution containing (at final concentrations) 50 mM Tris-HCl (pH 7.4), 5 mM MgCl2, 1 mM EDTA, 0.025 % ascorbic acid, radioligands, and appropriate drugs. […] ([aH]XAC), [^3 H]-labeled 2-[4-(2-[(4-aminophenyl)methylcarbobylamino]ethylaminocarbonyl)ethyl)phenyl]ethylamino-5'-N-ethylcarboxamidoadenosine ([^3 H]PAPA-APEC), and [^3 H]-labeled [2-(4-(2-carboxyethyl)phenylethyamino)5'-N-ethylcarboxamidoadenosine ([^3 H]CGS21680). Receptor binding was initiated by the addition of membrane preparations in an amount equivalent to 20-100 μg protein, and carried out at 37° C. for 1 hr. Nonspecific binding was determined in the presence of 10 μM R-N^6 -phenyl-2-propyladenosine (R-PIA). After incubation, samples were filtered through glass fiber filters (Schleicher and Schuell #32) and washed three times with 4 ml ice-cold 10 mM TrisoHCl (pH 7.4). Radioactivity retained on the filters were counted using a Beckman LS6800 scintillation counter (Beckman Instruments, Palo Alto, Calif.). […] A LIGAND computer program was used for data analysis and curve fitting (Munson & Rodband, 1980, Anal. Biochem. 107: 220-225).
The A3 receptor was then characterized using competition assays between [^125 I]APNEA A3 receptor binding versus a series of other adenosine receptor ligands. Labeled APNEA was present in these assays at 0.5 nM; unlabled competitors were present at varying concentrations as shown in FIG. 4A.

A3 adenosine receptor [2] = molecular target: T1, A3 adenosine receptor; type: cell-based; conditions: 1 μM forskolin; 100 μM adenosine
A3 adenosine receptor [3] = molecular target: T1, A3 adenosine receptor; assay: cell-based; type: cell-based
Method: The concentrations of adenosine agonists used are 100 nM and the concentration of forskolin is 1 μM. Values are obtained from triplicate plates and shown as mean ±S.E.
The cell were not or pretreated with 100 ng/ml pertussis toxin for 18 hours. The concentration of forskolin and adenosine agonists used are as in FIG. 5.
It is known that the A 1 adenosine receptor inhibits adenylate cyclase activity and the A2 adenosine receptor stimulates adenylate cyclase respectively (Stiles, ibid.; Williams, ibid.).
(§2) Cells were grown to about 80% confluence in 150 mm dishes, washed twice with Ca^++ and Mg^++ -free PBS buffer and detached from plates with PBS buffer containing 0.02% EDTA. Cells were collected by centrifugation at 800 rpm (xx g) for 10 min at 4° C. and resuspended in an appropriate volume of KRH buffer [140 mM NaCl, 5 mM KCl , 2 mM CaCl2, 1.2 mM MgSO4, 1.2 mM KH2 PO4, 6 mM glucose, 25 mM Hepes-NaOH (pH 7.4)]. The cells were washed once with KRH buffer and resuspended in KRH buffer at a concentration of 10^7 cells/ml. Each of 100 μl aliquots of this cell suspension were added to a glass tube containing 100 μl KRH+200 μM Ro 20-1724 and incubated at 37° C. for 10 min. Prewarmed 200 μl KRH containing 200 μm Ro 20-1724 and test drugs were then added to the cells and mixed. After incubation at 37° C. for 20 min, 400 μl 10.5 mM NaAc (pH 6.2) were added and the glass tubes transferred to a boiling water bath. The incubated cell suspension were boiled for 20 min, and the tubes were then cooled to room temperature and centrifuged at 3000 rpm (xx g) for 15 min.
For experiments using pertussis toxin pretreatment, aseptic pertussis toxin (Sigma Chemical Co., St. Louis, Mo.) was dissolved in sterile water and added to the medium to a final concentration of 100 ng/ml. Toxin treatment was maintained for approximately 18 hours. The dishes were rinsed once with media immediately prior to the addition of adenosine receptor ligands and processed as described above.

A3 adenosine receptor [4] = molecular target: T1, A3 adenosine receptor; assay: Direct radioligand binding / Scatchard analysis, stably transfected CHO cell membranes; conditions: radiolabeled ligands, stably transfected CHO membranes
Source text: FIG. 3 illustrates a Scatchard plot of radioligand binding assays for the A3 adenosine receptor performed with the adenosine radioligand [^125 I]APEA and membrane preparations from stably transfected CHO cells.
The entire coding region of the A3 cDNA insert from R226 was excised from pGem226 and subcloned into either the HindIII/XbaI sites of an RC-RSV expression vector (Invitrogene, San Diego, Calif.) or the HindIII/SmaI sites of pBC12BI (Cullen, 1987, Meth. Enzym. 152: 684-704). The resulting plasmids were called Rc-RSV226 and pBC226 respectively. For transient expression in COS-7 cells, pBC226 plasmid DNA was prepared in large-scale through one cycle of CsCl gradient ultracentrifugation and 45 μg pBC226 DNA were transfected into each 150mm dish of COS-7 cells according to the method of Chen and Okayama (1987, Molec. Cell Biol. 7: 2745-2752). For stable expression in CHO cells, 1 μg Rc-RSV226 plasmid DNA isolated from a small-scale preparation was purified using the Prep-A-Gene kit (Bio-Rad) and transfected into CHO cells by the CaPO4 method (Graham and van der Eb, 1973, Virol. 52: 456-463). After transfection, cells were cultured in DMEM (COS-7 cells) or F-12 (CHO cells) media supplemented with 10% fetal calf serum in a 3% CO2 atmosphere at 37° C. For stable transfection, selection was performed with neomycin (G418; SOURCE) at a concentration of 700 μg/ml; selection was started 72 hr after transfection and continued for 3 weeks. Cell colonies were screened for expression of the A3 adenosine receptor from the R226 expression vectors described herein by Northern blot hybridization of total cellular RNA with random-primed PCR226 probe (Maniatis et al., ibid.).
as §1
Radioligand binding assays were carried out in duplicate in 500 μl of a solution containing (at final concentrations) 50 mM Tris-HCl (pH 7.4), 5 mM MgCl2, 1 mM EDTA, 0.025 % ascorbic acid, radioligands, and appropriate drugs. […] ([aH]XAC), [^3 H]-labeled 2-[4-(2-[(4-aminophenyl)methylcarbobylamino]ethylaminocarbonyl)ethyl)phenyl]ethylamino-5'-N-ethylcarboxamidoadenosine ([^3 H]PAPA-APEC), and [^3 H]-labeled [2-(4-(2-carboxyethyl)phenylethyamino)5'-N-ethylcarboxamidoadenosine ([^3 H]CGS21680). Receptor binding was initiated by the addition of membrane preparations in an amount equivalent to 20-100 μg protein, and carried out at 37° C. for 1 hr.

cellular cAMP levels = assay: Cellular cAMP levels after forskolin in wild type and stably transfected CHO cells; type: cell-based, Chinese hamster; conditions: Cricetulus griseus, 20 min, read-out: increase in cellular cAMP levels, 1 μM forskolin
Method: as §2

In the case of Nc1ncnc2c1ncn2[C@@H]1O[C@H](CO)[C@@H](O)[C@H]1O [Adenosine, adenosine], the “affinity relative to nucleotides” value (A3 adenosine receptor [1]) is reported as “much higher affinity than ATP, ADP, AMP, cAMP or UTP”, the IC50 (A3 adenosine receptor [1]; Table I and text, 0.5 nM [125I]APNEA) is reported as 30 ± 4 µM and the “pharmacological profile of inhibition of [125I]APNEA binding” value (A3 adenosine receptor [1]; rank order) is reported as “R-PIA=NECA>S-PIA>adenosine>ATP=ADP”. The “inhibition of forskolin-stimulated cAMP accumulation” value (A3 adenosine receptor [2]) was 20-50%, the EC50 (A3 adenosine receptor [3]; Table II) was 6.5 ± 2.1 µM and the “maximal effect on cAMP production” value (A3 adenosine receptor [3]; at the concentrations tested) was “does not reach its maximal effect at the concentrations tested”.

CCNC(=O)[C@H]1O[C@@H](n2cnc3c(N)nc(NCCc4ccc(CCC(=O)O)cc4)nc32)[C@H](O)[C@@H]1O [CGS21680] was tested, and the “specific, high affinity binding to the A3 receptor” value (“specific, high affinity binding” below) (A3 adenosine receptor [4]) was “The only adenosine receptor ligand to show specific, high affinity binding to the A3 receptor was the A1 selective agonist [^125 I]APNEA”, the EC50 (A3 adenosine receptor [3]) was 0.144 ± 0.034 µM and the “inhibition of forskolin-stimulated cAMP accumulation” value (A3 adenosine receptor [3]; 1 μM forskolin, 100 nM agonist) was 20-50%. The “maximum inhibition of cAMP production” value (A3 adenosine receptor [3]; of control values) was 40-50%.

CCCn1c(=O)c2[nH]c(C3CCCC3)nc2n(CCC)c1=O [DPCPX, 1,3-dipropyl-8-cyclopentylxanthine] was tested, and the “ability to compete with [125I]APNEA for A3 receptor binding” value (A3 adenosine receptor [1]) was “none of the methylxanthines tested were capable of competing with labeled APNEA”, the “specific, high affinity binding” value (A3 adenosine receptor [4]) was “The only adenosine receptor ligand to show specific, high affinity binding to the A3 receptor was the A1 selective agonist [^125 I]APNEA” and the “specific, high affinity binding” value (A3 adenosine receptor [4]; listed as [^3 H]DPCPX) was “does not bind to the A3 adenosine receptor”. The “reversal of inhibitory effect of NECA on forskolin-stimulated cAMP production” value (A3 adenosine receptor [3]; 10 nM DPCPX) was “could not be reversed”.

With CCNC(=O)[C@H]1O[C@@H](n2cnc3c(N)nc(NCCc4ccc(CCC(=O)NCCNC(=O)Cc5ccc(N)cc5)cc4)nc32)[C@H](O)[C@@H]1O [PAPA-APEC] the “specific, high affinity binding” value (A3 adenosine receptor [4]) was “The only adenosine receptor ligand to show specific, high affinity binding to the A3 receptor was the A1 selective agonist [^125 I]APNEA”.

With CCCn1c(=O)c2[nH]c(-c3ccc(OCC(=O)NCCN)cc3)nc2n(CCC)c1=O [XAC] the “ability to compete with [125I]APNEA for A3 receptor binding” value (A3 adenosine receptor [1]) was “none of the methylxanthines tested were capable of competing with labeled APNEA” and the “specific, high affinity binding” value (A3 adenosine receptor [4]) was “The only adenosine receptor ligand to show specific, high affinity binding to the A3 receptor was the A1 selective agonist [^125 I]APNEA”.

Work on C=C[C@@]1(C)CC(=O)[C@]2(O)[C@@]3(C)[C@@H](O)CCC(C)(C)[C@@H]3[C@H](O)[C@H](OC(C)=O)[C@@]2(C)O1 [forskolin] yielded a fold induction at 1 µM (cellular cAMP levels) of 15.
